Two compounds from paper PMC8296622, “Crystal structure and functional characterization of an oligosaccharide dehydrogenase from Pycnoporus cinnabarinus provides insights into fungal breakdown of lignocellulose” (Biotechnology for Biofuels, 2021) can be followed below.

Molecules are shown by their SMILES.

Experiment [1] has as its target T1, ODH (oligosaccharide dehydrogenase) (Trametes cinnabarina, UniProt A0A060SC37).
T1 construct: gene BN946_scf184803.g17
Briefly: X-ray crystallography of soaked crystals (data not shown). The settings on record: bound at three external surface sugar-binding sites, not in the active site.

Experiment [2] concerns the target T1, ODH (oligosaccharide dehydrogenase). Briefly: X-ray crystallography. The class given is binding. Particulars: ligand-free (sugar-free) enzyme, 1.6 Å; non-covalently bound, oxidized FAD.

T1 sequence (A0A060SC37 entry or part of it): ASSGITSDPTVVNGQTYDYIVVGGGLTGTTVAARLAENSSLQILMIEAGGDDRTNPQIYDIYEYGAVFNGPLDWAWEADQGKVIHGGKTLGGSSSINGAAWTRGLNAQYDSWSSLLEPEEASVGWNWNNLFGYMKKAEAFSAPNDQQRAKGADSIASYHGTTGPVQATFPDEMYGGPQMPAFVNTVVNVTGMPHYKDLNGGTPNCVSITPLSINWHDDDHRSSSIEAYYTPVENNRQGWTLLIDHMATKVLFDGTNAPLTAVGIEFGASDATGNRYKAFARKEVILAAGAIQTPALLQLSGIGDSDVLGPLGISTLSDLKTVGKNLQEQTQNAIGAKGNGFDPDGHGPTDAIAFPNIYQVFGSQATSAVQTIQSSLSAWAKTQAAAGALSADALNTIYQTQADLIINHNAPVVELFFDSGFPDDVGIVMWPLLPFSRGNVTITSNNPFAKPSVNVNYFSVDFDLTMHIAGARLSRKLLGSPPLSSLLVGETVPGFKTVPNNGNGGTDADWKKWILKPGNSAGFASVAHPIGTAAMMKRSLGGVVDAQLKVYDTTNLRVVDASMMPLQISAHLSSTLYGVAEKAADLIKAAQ

As to `OC[C@H]1O[C@@H](O[C@H]2[C@H](O)[C@@H](O)C(O)O[C@@H]2CO)[C@H](O)[C@@H](O)[C@@H]1O` (mixture of isomers) [G4G, cellobiose], the “X-ray crystallography of soaked crystals (data not shown)” value in experiment [1] was “the ligand was clearly bound to (and modeled at) the three SBSs (data not shown)”.
For `Cc1cc2nc3c(=O)[nH]c(=O)nc-3n(C[C@H](O)[C@H](O)[C@H](O)COP(=O)(O)OP(=O)(O)OC[C@H]3O[C@@H](n4cnc5c(N)ncnc54)[C@H](O)[C@@H]3O)c2cc1C` [FAD], the X-ray crystallography result in experiment [2] is reported as “The FAD molecule is non-covalently bound to the protein”.
